According to US20050222383A1, “Prostasin substrates and inhibitors” (IRM LLC, priority 2004, published 2005):
Values belong to the molecule of their own block, whether it stands above or below them.

Tests used:
prostasin [1] = target: T1, prostasin (Homo sapiens, UniProt Q16651); assay: Cation/anion inhibition of prostasin activity against Ac-KHYR-acc; type: biochemical; conditions: read-out: Inhibition constants
T1 construct: eliminate the N-terminal signal peptide domain and light chain and the C-terminal GPI signal domain; honeybee melittin signal peptide (21 aa) (N); made in house; host or cells: Sf9 insect cells, baculovirus (Bac-to-Bac, pFastBac1)

prostasin [2] = target: T1, prostasin; assay: Prostasin assayed in tetrapeptide substrate libraries with a set concentration of sodium, calcium or zinc; type: biochemical; conditions: for effect on substrate specificity profile / decrease in activity across the libraries: tetrapeptide substrate libraries; for decrease in activity across the libraries: set concentration of ion
Description: P1-P4-Fluorogenic substrate libraries were synthesized as previously described (Wang et al, J. Biol. Chem., 278: 15800-15808, 2003). Prostasin was diluted in assay buffer and added to the library plates. In the two-position fixed tetrapeptide substrate library, the final substrate concentration was approximately 0.25 μM/substrate/well with a total of 361 substrates per well. Each variable position had one of 19 amino acids with cysteine excluded and methionine replaced by its isostere norleucine.
Further, prostasin was assayed in the tetrapeptide substrate libraries with a set concentration of sodium, calcium or zinc to determine the effect of each on overall substrate specificity.

prostasin [3] = target: T1, prostasin; assay: Assays with transition metals, prostasin activity with Ac-KHYR-acmc; type: biochemical; conditions: for enhancement effect: increase of enzymatic activity: Ac-KHYR-acmc substrate, sub inhibitory metal ion concentrations; for increases in IC50 values: assays with KHYR substrate
Description: (§1) Proteolytic activity of the purified prostasin was monitored by measuring the accumulation of the fluorophore 7-amino-3-carbamoylmethyl-4-methylcoumarin (acmc) or 7-amino-4-carbamoylmethylcoumarin (acc) produced by the cleavage of the tetrapeptide substrate Ac-KHYR-acmc, Ac-KHYR-acc or Ac-PRLR-acmc in assay buffer (50 mM Tris-Cl pH 9.0, 0.25% CHAPS; 10 mM CHES pH 9.0 (37° C.), 0.25% CHAPS; or 10 mM Hepes pH 7.4 (37° C.), 0.25% CHAPS) at 37° C. Assays were run in 96 or 384-well black microtiter plates. Data was collected with a Gemini XS plate reader (Molecular Devices) at λex=380 nm and λem=450 nm.

prostasin [4] = target: T1, prostasin; assay: Michaelis-Menten kinetics of KHYR-acmc and PRLR-acmc in the presence of zinc; type: biochemical
Description: as §1
The effect of zinc on the Michelis-Menten kinetics of KHYR-acmc and PRLR-acmc was measured in the presence of 20 μM zinc(II). […] The kcat of KHYR-acmc was 2.7 fold higher and the kcat of PRLR-acmc was 1.6 fold lower. These changes translated into a 30-fold increase in specificity for KHYR over PRLR in the presence of zinc.

prostasin [5] = target: T1, prostasin; assay: Inhibition assays of macromolecular inhibitors, prostasin activity against Ac-KHYR-acmc; type: biochemical; conditions: Ac-KHYR-acmc substrate, Tris-CHAPS buffer; read-out: classical inhibition constants (Ki)
Description: as §1
The inhibition constants of macromolecular inhibitors were calculated for prostasin. Prostasin activity against Ac-KHYR-acmc was measured in Tris-CHAPS buffer, as in “Enzyme Assays,” in the presence of 10 μM-170 pM aprotinin and soybean trypsin inhibitor (SBTI), 1 μM-17 pM α1-antitrypsin, and 200 nM-3.3 pM α1-antichymotrypsin. Rates were plotted in Prism (GraphPad) and classical inhibition constants (Ki) were calculated using the results of non-linear regression.

[6] = system: Xenopus kidney epithelial cell line; conditions: exposure of the apical membrane; cited from earlier work
[7] = Ac-KHYR-acc substrate, CHES-CHAPS buffer, 37° C.
[8] = in the presence of 20 μM zinc(II)

T1 sequence (Q16651 45-322 limits assumed): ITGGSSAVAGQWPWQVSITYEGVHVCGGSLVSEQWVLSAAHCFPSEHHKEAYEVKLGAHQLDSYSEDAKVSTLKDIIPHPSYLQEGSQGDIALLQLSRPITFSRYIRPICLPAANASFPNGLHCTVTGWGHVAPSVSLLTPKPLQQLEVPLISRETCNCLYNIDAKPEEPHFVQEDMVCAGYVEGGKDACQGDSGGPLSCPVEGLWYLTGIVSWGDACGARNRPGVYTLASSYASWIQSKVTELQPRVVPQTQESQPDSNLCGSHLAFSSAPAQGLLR

Molecule: [Ca+2].[Cl-].[Cl-] [CaCl2]
Ki (prostasin [1]; [7]): 260 µM

Molecule: [Cl-].[Cl-].[Co+2] [CoCl2]
Ki (prostasin [1]): 5 µM

Molecule: [Cl-].[K+] [KCl]
Ki (prostasin [1]; [7]): 5800 µM

Molecule: [Cl-].[Li+] [LiCl]
Ki (prostasin [1]; [7]): 2400 µM

Ki (prostasin [1]; [7]): 390 µM
Molecule: [Cl-].[Cl-].[Mg+2] [MgCl2]

Molecule: [Cl-].[Na+] [NaCl]
Ki (prostasin [1]): 5300 µM

Molecule: [F-].[Na+] [NaF]
Ki (prostasin [1]; [7]): 4200 µM

Molecule: [I-].[Na+] [NaI]
Ki (prostasin [1]; [7]): 4500 µM

Molecule: [Ca+2] [calcium]
effect on substrate specificity profile (prostasin [2]): Neither sodium nor calcium changed the substrate profile | decrease in activity across the libraries (prostasin [2]): 25-35%

Molecule: [Co+2] [cobalt]
enhancement effect: increase of enzymatic activity (prostasin [3]): No enhancement in activity | increases in IC50 values (prostasin [3]): 10 fold

Molecule: [Cu+2] [copper]
increases in IC50 values (prostasin [3]): 25 fold

Molecule: [Ni+2] [nickel]
enhancement effect: increase of enzymatic activity (prostasin [3]): 1.4 fold | increases in IC50 values (prostasin [3]): 100 fold

Molecule: [Na+] [sodium]
effect on substrate specificity profile (prostasin [2]): Neither sodium nor calcium changed the substrate profile | decrease in activity across the libraries (prostasin [2]): 50-60%

Molecule: [Zn+2] [zinc]
relative increase in the activity of substrates with arginine in P1 and histidine in P3 (prostasin [2]; P1-P3 library): three fold relative increase | effect on substrate specificity profile (prostasin [2]): did not alter the specificity profiles | increases in IC50 values (prostasin [3]): 200 fold

decrease in the Km (prostasin [4]; [8]): 4 fold | kcat higher (prostasin [4]; [8]): 2.7 fold | increase in specificity for KHYR over PRLR (prostasin [4]; in the presence of zinc): 30 fold
Molecule: Ac-KHYR-acmc

increase in the Km (prostasin [4]; [8]): 2 fold | kcat lower (prostasin [4]; [8]): 1.6 fold
Molecule: Ac-PRLR-acmc

Ki (prostasin [5]): 0.0025 µM
Molecule: aprotinin
transepithelial sodium transport [6]: reduces transepithelial sodium transport

Ki (prostasin [5]): > 0.2 µM
B1: α1-antichymotrypsin (protein, UniProt P01011 24-423, looked up)
Alpha-1-antichymotrypsin: HPNSPLDEENLTQENQDRGTHVDLGLASANVDFAFSLYKQLVLKAPDKNVIFSPLSISTALAFLSLGAHNTTLTEILKGLKFNLTETSEAEIHQSFQHLLRTLNQSSDELQLSMGNAMFVKEQLSLLDRFTEDAKRLYGSEAFATDFQDSAAAKKLINDYVKNGTRGKITDLIKDLDSQTMMVLVNYIFFKAKWEMPFDPQDTHQSRFYLSKKKWVMVPMMSLHHLTIPYFRDEELSCTVVELKYTGNASALFILPDQDKMEEVEAMLLPETLKRWRDSLEFREIGELYLPKFSISRDYNLNDILLQLGIEEAFTSKADLSGITGARNLAVSQVVHKAVLDVFEEGTEASAATAVKITLLSALVETRTIVRFNRPFLMIIVPTDTQNIFFMSKVTNPKQA
